Laboratory results from ChEMBL document CHEMBL4715853 (J Med Chem, 2020).

How the values were obtained:
SARS-CoV-2 [1] = test: Antiviral actvity against SARS-CoV2 infected in human assessed as improvement rate of chest at 1600 mg, po administered twice on day 1 and 600 mg BID on day 2 to 14 and measured after 14 days by computed tomography; assay type: functional, Severe acute respiratory syndrome coronavirus 2; details: time 14 day
Zaire ebolavirus [2] = test: Antiviral activity against Zaire Ebola virus infected in IFNAR-/- C57BL/6 mouse assessed as mouse survival at 300 mg/kg, po administered twice daily starting from day 6 post infection until day 13 post infection and measured at the end of 3 weeks; assay type: functional
Zaire ebolavirus [3] = test: Antiviral activity against Zaire Ebola virus infected in African green monkey Vero E6 cells measured after 5 days by immunofocus assay; assay type: functional, organism-based; details: Vero C1008, 120 h
SARS-CoV-2 [4] = test: Antiviral activity against 2019-nCoV BetaCoV/Wuhan/WIV04/2019 infected in African green monkey VeroE6 cells assessed as reduction in viral yield preincubated with virus for 1 hr followed by cell infection and […] by qRT-PCR method; assay type: functional, organism-based; details: Severe acute respiratory syndrome coronavirus 2, BetaCoV/Wuhan/WIV04/2019, Vero C1008
[5] = Cytotoxicity against African green monkey Vero E6 cells by the CCK8 assay; assay type: cell-based, Vero C1008; details: chlorocebus sabaeus
[6] = Selectivity index, ratio of CC50 for African green monkey Vero E6 cells to EC50 for 2019-nCoV Beta CoV/Wuhan/WIV04/2019 infected in African green monkey Vero E6 cells; assay type: toxicity, Vero C1008; details: read-out: Ratio CC50/EC50
[7] = Toxicity in human infected with SARS-CoV2 assessed as adverse events at 1600 mg, po administered twice on day 1 and 600 mg BID on day 2 to 14 and measured after 14 days; assay type: organism-based; details: in vivo, 336 h, time 14 day
SARS-CoV-2 [8] = test: Antiviral actvity against SARS-CoV2 infected in human assessed as latency time to pyrexia reduction at 1600 mg administered twice on day 1 and 600 mg BID for 7 days; assay type: functional, Severe acute respiratory syndrome coronavirus 2; details: time 7 day
SARS-CoV-2 [9] = test: Antiviral actvity against SARS-CoV2 infected in human assessed as latency time to cough relief at 1600 mg administered twice on day 1 and 600 mg BID for 7 days; assay type: functional, Severe acute respiratory syndrome coronavirus 2; details: time 7 day
[10] = Cytotoxicity against human Huh-7 cells incubated for 1 hr by MTS assay; assay type: cell-based
[11] = Cytotoxicity against African green monkey Vero E6 cells incubated for 3 days by the MTS assay; assay type: cell-based, Vero C1008; details: chlorocebus sabaeus, time 3 day
Human coronavirus OC43 = test: Antiviral activity against wild type HCoV-OC43 infected in BHK-21 cells incubated for 72 hrs by RT-PCR method; assay type: functional, cell-based; details: Betacoronavirus 1, BHK-21, 72 h
SARS-CoV [12] = test: Antiviral activity against SARS-CoV isolate Frankfurt-1 infected in African green monkey Vero E6 cells incubated for 3 days; assay type: functional, organism-based; details: Severe acute respiratory syndrome-related coronavirus, Frankfurt 1, Vero C1008, 72 h
SARS-CoV [13] = test: Antiviral activity against SARS-CoV isolate Frankfurt-1 infected in African green monkey Vero E6 cells incubated for 3 days by MTS assay; assay type: functional, organism-based; details: Severe acute respiratory syndrome-related coronavirus, Frankfurt 1, Vero C1008, 72 h
[14] = Cytotoxicity against African green monkey Vero E6 cells by the MTS assay; assay type: cell-based, Vero C1008; details: chlorocebus sabaeus
[15] = Inhibition of SARS Coronavirus helicase pp1ab domain assessed as reduction in ATPase activity by phosphomolybdate-malachite green assay; design: species or system Severe acute respiratory syndrome-related coronavirus
[16] = Inhibition of SARS Coronavirus helicase pp1ab domain assessed as reduction in helicase activity using DT20Cy3/Release BHQ oligomers by FRET-based assay; design: species or system Severe acute respiratory syndrome-related coronavirus
SARS-CoV [17] = test: Antiviral actvity against SARS-CoV GZ50 infected in Rhesus macaque FRhK-4 cells assessed as reduction in virus-induced cytopathic effect incubated for 24 to 48 hrs by phase-contrast microscopy; assay type: functional, organism-based; details: Severe acute respiratory syndrome-related coronavirus, GZ50, FRhK-4
[18] = Cytotoxicity against Rhesus macaque FRhK-4 cells by MTT assay; assay type: cell-based, Macaca mulatta; details: rhesus monkey

NC(=O)c1nc(F)cnc1O
Activity (SARS-CoV-2 [1]): 91.4%
Activity (Zaire ebolavirus [2]): 100%
IC50 (Zaire ebolavirus [3]): 67 µM
IC50 (SARS-CoV-2 [4]): 61.8 µM
CC50 [5]: > 400 µM
selectivity ratio [6]: > 6.46
Activity [7]: 11.4%
Time (SARS-CoV-2 [8]): 1.7 days
Time (SARS-CoV-2 [9]): 1.75 days

CCN(CC)CCCC(C)Nc1ccnc2cc(Cl)ccc12 (stereo unspecified) [CHLOROQUINE]
CC50 at 1 h [10]: > 50 µM
CC50 at 72 h [11]: > 128 µM
EC50 (SARS-CoV-2 [4]): 1.13 µM
CC50 [5]: > 100 µM
EC50 (Human coronavirus OC43): 0.33 µM
EC50 (SARS-CoV [12]): 4.1 µM
IC50 (SARS-CoV [13]): 8.8 µM
CC50 [14]: 261 µM

Cc1ncc(CO)c(C23OC4(O)CC(O)(CC(O)(C4)O2)O3)c1O
IC50 [15]: 2.3 µM
IC50 [16]: 3 µM
EC50 (SARS-CoV [17]): < 10 µM
CC50 [18]: 390 µM
